Test [1] concerns methicillin-resistant S. aureus (MRSA) strains. The experiment in a line: MIC, Agar Dilution / Micro Dilution Test (NCCLS). Particulars: e.g. in the form of its sodium salt. It is filed as cell-based, Staphylococcus aureus. From the text: E.g., the compounds of the present invention show antimicrobial, e.g. antibacterial activity against gram positive bacteria and gram negative, such as Staphylococcus, e.g. S. aureus, MRSA (Methicillin Resistant S. aureus), MSSA (Methicillin Sensitive S. aureus), Enterococcus, e.g. E. faecalis, E. faecium, Moraxella, e.g. M. catarrhalis, in vitro in the Agar Dilution Test and/or Micro Dilution Test for bacteria according to National Committee for Clinical Laboratory Standards (NCCLS) 1993, • Document M7-A4, Vol. 20, No. 2, 2000: “Methods for dilution Antimicrobial Susceptibility Tests for Bacteria that Grow Aerobically”—Third Edition, Approved Standard”; and • Document M26-A, Vo. 19, No. 18, 1999: Methods for determining antibactericidal activity of antimicrobial agents, • Document M11-A3 for anaerobic bacteria, • in a concentration from about 0.1 to ca. 25.6 μg/ml, e.g. using strains including Staphylococcus aureus (ATCC 29213 and ATCC 29506); Enterococcus faecalis ATCC 29212; • and in vivo in the septicaemia mouse model, in accordance to the method description Nr. […]
The compound of example 1 is a preferred compound of the present invention. It has, for example been determined that the minimum inhibitory concentration, e.g. MIC90 (μg/ml), of the compound of Example 1, e.g. in the form of its sodium salt, against, for example S. aureus (MRSA) is of about 0.2.
A general note: In agar dilution the substance is mixed into plates at graded concentrations.

Test [2] has as its system Staphylococcus aureus (ATCC 49951, MSSA). The experiment in a line: septicaemia mouse model. It is filed as in vivo. Particulars: mice, treated orally 1 and 4 hours after infection; survival on day 5; Probit analysis; e.g. sodium salt; ranging from 5.54 to 13.34. The source says:
(§1) E.g., the compounds of the present invention show antimicrobial, e.g. antibacterial activity against gram positive bacteria and gram negative, such as Staphylococcus, e.g. S. aureus, MRSA (Methicillin Resistant S. aureus), MSSA (Methicillin Sensitive S. aureus), Enterococcus, e.g. E. faecalis, E. faecium, Moraxella, e.g. M. catarrhalis, in vitro in the Agar Dilution Test and/or Micro Dilution Test for bacteria according to National Committee for Clinical Laboratory Standards (NCCLS) 1993, • Document M7-A4, Vol. 20, No. 2, 2000: “Methods for dilution Antimicrobial Susceptibility Tests for Bacteria that Grow Aerobically”—Third Edition, Approved Standard”; and • Document M26-A, Vo. 19, No. 18, 1999: Methods for determining antibactericidal activity of antimicrobial agents, • Document M11-A3 for anaerobic bacteria, • in a concentration from about 0.1 to ca. 25.6 μg/ml, e.g. using strains including Staphylococcus aureus (ATCC 29213 and ATCC 29506); Enterococcus faecalis ATCC 29212; • and in vivo in the septicaemia mouse model, in accordance to the method description Nr. 159 A-5, approved by Austrian Health Authorities (MA 58, no. 2968/95 of Oct. 12, 1995), e.g. when administered at dosages from 0.05 to 50 mg/kg body weight.
(§2) The ED50 values are calculated by Probit analysis of the administered dosages of compounds. Activity is determined by numbers of surviving animals per group of 8 or 6 mice, respectively, per dosage unit on day 5 after infection.

For test [3], the system named is S. aureus B29 (clinical isolate, MRSA). The experiment in a line: septicaemia mouse model. Particulars: mice, survival on day 5, Probit analysis, e.g. sodium salt. It is filed as in vivo.
Excerpt: as §1, §2

In test [4] the test system is Enterococcus faecalis isolates. The experiment in a line: MIC, Agar Dilution / Micro Dilution Test (NCCLS). Conditions: n=2. The test is classed as cell-based.
Excerpt: as §1
(§3) Furthermore, the compound of example 1 is active against mupirocin-resistant staphylococci (n=26) with MICs below 0.5 μg/ml (range ≦0.125-0.5 μg/ml). Moraxella catarrhalis isolates (n=2) are inhibited at MICs of 0.2 and 0.4 μg/ml. The MICs for Enterococcus faecalis isolates (n=2) are 6.4 μg/ml and 12.8 μg/ml.

The next test deals with Enterococcus faecium. The experiment in a line: MIC, Agar Dilution / Micro Dilution Test (NCCLS). The test is classed as cell-based. Conditions: n=1.
Excerpt: as §1, §3

Test [5] relates to Moraxella catarrhalis isolates. The experiment in a line: MIC, Agar Dilution / Micro Dilution Test (NCCLS). The test is classed as cell-based. Conditions: n=2.
Excerpt: as §1, §3

Test [6] has as its system methicillin-sensitive Staphylococcus aureus (MSSA) strains. The experiment in a line: MIC, Agar Dilution / Micro Dilution Test (NCCLS). The test is classed as cell-based. Particulars: n=26, e.g. in the form of its sodium salt.
Excerpt: as §1, §3

Test [7] relates to mupirocin-resistant staphylococci. The experiment in a line: MIC, Agar Dilution / Micro Dilution Test (NCCLS). The test is classed as cell-based. Conditions: n=26.
Excerpt: as §1, §3

The values that follow come from patent publication US20080009470A1, “Acremonic Acid Derivatives” (priority 2003, published 2008).

Where “and” joins values, the source holds several entries; their conditions need not be identical. Identical values can stand only once.

With “6-O-(2′-fluoroisobutyryl)-24, 25-dihydro-acremonic acid [Example 1]”, the MIC50 in test [1] (MRSA strains, n=26) was 0.2 µg/mL. Moreover, the MIC90 entry in test [1] (S. aureus (MRSA)) was “about 0.2 μg/ml”; in test [6] it was 0.25 µg/mL. Further, the ED50 entry in test [2] is reported as “ca. 8.55 mg/kg body weight”; in test [3] (treated orally 1 and 4 hours after infection, ranging from 4.25 to 11.98) it was “ca. 6.65 mg/kg body weight”; in test [3] (treated subcutaneously 1 and 4 hours after infection, ranging from 1.93 to 5.85) it was “ca. 3.20 mg/kg body weight”. Besides, the MICs in test [4] was 6.4 µg/mL and 12.8 µg/mL; in test [5], 0.2 µg/mL and 0.4 µg/mL; in test [7] it was “below 0.5 μg/ml”. Also, the MIC in the test on Enterococcus faecium came to 6.4 µg/mL. The MIC range in test [7] lay in the range of 0.125 to 0.5 µg/mL.

One may read the MIC50 as an inhibitory concentration at the 50% level, which refers to growth in some studies and to a panel of isolates in others. A word on the MIC90: it is an inhibitory concentration at the 90% level, which refers to growth in some studies and to a panel of isolates in others. The term MIC denotes the smallest concentration in the dilution series that meets the test's criterion for growth inhibition.
